Consider 5 molecules from BindingDB's records for doi:10.1021/jm00348a007 (1982).

In general, pKi refers to −log10 of the Ki, conventionally taken in molar units. Lower therefore signals a large Ki.

pKi: −log10 of the molar value.

In test [1] the target is Thymidine kinase 2, mitochondrial (rat). Briefly: Noncompetitive inhibition against rat mitochondrial thymidine kinase.
For test [2] the target is unchanged. Briefly: Non-competitive inhibition against rat mitochondrial thymidine kinase.
Test [3] has the same target. Briefly: Competitive inhibition against rat Mitochondrial thymidine kinase.
Test [4] shares this target. The test is described as above. The source holds these as a separate data set.

Turning to `Nc1nc(=O)n([C@H]2C[C@H](O)[C@@H](CO)O2)cc1I` [4-Amino-1-(4-hydroxy-5-hydroxymethyl-tetrahydro-furan-2-yl)-5-iodo-1H-pyrimidin-2-one], the pKi in test [1] was 2.46.
`Cc1cn(C2CC(O)C(CSCCCC(=O)O)O2)c(=O)[nH]c1=O` (stereo not given) [4-[3-Hydroxy-5-(5-methyl-2,4-dioxo-3,4-dihydro-2H-pyrimidin-1-yl)-tetrahydro-furan-2-ylmethylsulfanyl]-butyric acid]: the pKi in test [2] was 2.07.
In the case of `CCO[C@H]1C[C@H](n2cc(C)c(=O)[nH]c2=O)O[C@@H]1CO` [1-(4-Ethoxy-5-hydroxymethyl-tetrahydro-furan-2-yl)-5-methyl-1H-pyrimidine-2,4-dione], the pKi in test [3] was 4.25.
In test [2], `C/C=C/c1cn([C@H]2C[C@H](O)[C@@H](CO)O2)c(=O)[nH]c1=O` [1-(4-Hydroxy-5-hydroxymethyl-tetrahydro-furan-2-yl)-5-propenyl-1H-pyrimidine-2,4-dione(BVDU)] showed a negative-log Ki (pKi) of 3.29.
In test [4], `Cc1cn([C@H]2C[C@H](O)[C@@H](CO)O2)c(=O)nc1N` [4-Amino-1-(4-hydroxy-5-hydroxymethyl-tetrahydro-furan-2-yl)-5-methyl-1H-pyrimidin-2-one] gave a pKi of 2.89.
